Experimental data as given in US20260022142A1, “MACROCYCLIC IMMUNOMODULATORS” (Bristol-Myers Squibb Company, priority 2022, published 2026).
Bridge positions count the residues as written; N and C are the ends. Square brackets hold non-standard residues; d marks the D form. Peptide text beside a SMILES is read from it. * marks the point of attachment. ξ: configuration not given here. Phe(3-CF3) = N[C@@H](Cc1cccc(C(F)(F)F)c1)C(=O)O; Phe(4-COOH) = N[C@@H](Cc1ccc(C(=O)O)cc1)C(=O)O; Bip = N[C@@H](Cc1ccc(-c2ccccc2)cc1)C(=O)O; NH(CH2)14COOH = O=C(O)CCCCCCCCCCCCCCN*; Phe(3-F) = N[C@@H](Cc1cccc(F)c1)C(=O)O; Phe(3-Me) = Cc1cccc(C[C@H](N)C(=O)O)c1; His(π-Me) = Cn1cncc1C[C@H](N)C(=O)O; Val(3-OH) = CC(C)(O)[C@H](N)C(=O)O; hArg = N=C(N)NCCCC[C@H](N)C(=O)O; Cha = N[C@@H](CC1CCCCC1)C(=O)O; Cit = NC(=O)NCCC[C@H](N)C(=O)O; Thr(3ξ) = CC(O)[C@H](N)C(=O)O; 12Ado = NCCCCCCCCCCCC(=O)O; dOrn = NCCC[C@@H](N)C(=O)O; hSer = N[C@@H](CCO)C(=O)O; Carboxymethyl = O=C(O)C*; Orn = NCCC[C@H](N)C(=O)O; Aun = NCCCCCCCCCCC(=O)O; Dab = NCC[C@H](N)C(=O)O; Dap = NC[C@H](N)C(=O)O; AEEA = NCCOCCOCC(=O)O; Propargyl = C#CC*; ξC = NC(CS)C(=O)O

biological target: T1, PD-1/PD-L1 interaction (PE-labeled human PD-L1-Ig binding to Jurkat cell line over-expressing human PD-1) (Homo sapiens, UniProt Q15116); assay: Jurkat-PD-1 Cell Binding High-Content Screening Assay (CBA); type: cell-based; details: Jurkat cell line over-expressing human PD-1; PE-labeled PD-L1-Ig 20 nM final; read-out: Jurkat hPD1-PDL1 IC50
T1 construct: expressed in transfected cells; host or cells: Jurkat
T1 sequence (Q15116 25-288): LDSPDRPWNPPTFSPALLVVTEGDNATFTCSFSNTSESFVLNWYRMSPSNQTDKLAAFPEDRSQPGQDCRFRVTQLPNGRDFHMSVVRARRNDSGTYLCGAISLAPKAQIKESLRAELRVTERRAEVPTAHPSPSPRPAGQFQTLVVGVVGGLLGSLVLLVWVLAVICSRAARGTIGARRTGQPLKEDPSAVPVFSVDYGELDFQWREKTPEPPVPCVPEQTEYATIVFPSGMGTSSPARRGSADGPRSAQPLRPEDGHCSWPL
Summary of the method: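 Binding of fluorescent PD-L1-Ig (phycoerythrin on Ig tag, 20 nM final, 1 h) measured by high-content imaging of fixed, Hoechst-counterstained Jurkat-hPD-1 cells. Compound added 2 h at 37° C beforehand, in DMEM with 10% fetal calf serum.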

Row | IC50 | SMILES
1 | 31.4 nM | Cc1cccc(C[C@@H]2NC(=O)[C@H](CC(=O)O)NC(=O)[C@H](Cc3ccc(C(=O)O)cc3)NC(=O)[C@H](Cc3ccc(OCC(=O)O)cc3)NC(=O)CSC[C@@H](C(=O)NCCOCCOCC(=O)NCCCCCCCCCCC(=O)O)NC(=O)[C@H](CCO)NC(=O)[C@H](C(C)C)NC(=O)[C@H](CC3CCCCC3)NC(=O)[C@H](CCN)NC(=O)[C@@H](CC(C)C)NC(=O)[C@H](CCCN)NC(=O)[C@H](C(C)C)NC(=O)[C@H](Cc3ccc(-c4ccccc4)cc3)NC(=O)[C@H](C(C)C)NC2=O)c1 [Compound 3327] ({CH2CO}-Y(Carboxymethyl)[Phe(4-COOH)]D[Phe(3-Me)]V[Bip]V[Orn][dL][Dab][Cha]V[hSer]C[AEEA][Aun]-OH; thioether N-14)
2 | 21.2 nM | CC(C)C[C@H]1NC(=O)[C@H](CCCN)NC(=O)[C@H](Cc2ccc(O)cc2)NC(=O)[C@H](Cc2ccc(-c3ccccc3)cc2)NC(=O)[C@H](C(C)C)NC(=O)[C@H](Cc2c[nH]c3ccccc23)NC(=O)[C@H](CC(=O)O)NC(=O)[C@H](Cc2ccc(OCC(=O)O)cc2)NC(=O)[C@H](CCCCNC(=N)N)NC(=O)CSC[C@@H](C(=O)N[C@@H](CCN)C(=O)NCCCCCCCCCCC(=O)O)NC(=O)[C@H](CCCNC(N)=O)NC(=O)[C@H](C(C)C)NC(=O)[C@H](CC2CCCCC2)NC(=O)[C@H](CCN)NC1=O [Compound 3407] ({CH2CO}-[hArg]Y(Carboxymethyl)DWV[Bip]Y[Orn][dL][Dab][Cha]V[Cit]C[Dab][Aun]-OH; thioether N-14)
3 | 10.7 nM | CC(C)C[C@H]1NC(=O)[C@H](CCCN)NC(=O)[C@H](C(C)C)NC(=O)[C@H](Cc2ccc(-c3ccccc3)cc2)NC(=O)[C@H](C(C)C)NC(=O)[C@H](Cc2c[nH]c3ccccc23)NC(=O)[C@H](CC(=O)O)NC(=O)[C@H](Cc2ccc(OCC(=O)O)cc2)NC(=O)[C@H](CCCCNC(=N)N)NC(=O)CSC[C@@H](C(=O)NCC(=O)NCCOCCOCC(=O)N[C@@H](CCCN)C(=O)NCCCCCCCCCCC(=O)O)NC(=O)[C@H](CO)NC(=O)[C@H](C(C)C)NC(=O)[C@H](CC2CCCCC2)NC(=O)[C@H](CCN)NC1=O [Compound 3035] ({CH2CO}-[hArg]Y(Carboxymethyl)DWV[Bip]V[Orn][dL][Dab][Cha]VSCG[AEEA][Orn][Aun]-OH; thioether N-14)
4 | 30.1 nM | Cc1cccc(C[C@@H]2NC(=O)[C@H](CC(=O)O)NC(=O)[C@H](Cc3ccc(OCC(=O)O)cc3)NC(=O)[C@H](CN)NC(=O)CSC[C@@H](C(=O)N[C@@H](CCCN)C(=O)N[C@@H](CO)C(=O)NCCCCCCCCCCCC(=O)O)NC(=O)[C@H](C(C)O)NC(=O)[C@H](C(C)C)NC(=O)[C@H](CC3CCCCC3)NC(=O)[C@H](CCN)NC(=O)[C@@H](CC(C)C)NC(=O)[C@H](CCCN)NC(=O)[C@H](CCCNC(N)=O)NC(=O)[C@H](Cc3ccc(-c4ccccc4)cc3)NC(=O)[C@H](Cc3ccc(O)cc3)NC2=O)c1 (stereo partly drawn) [Compound 3586] ({CH2CO}-[Dap]Y(Carboxymethyl)D[Phe(3-Me)]Y[Bip][Cit][Orn][dL][Dab][Cha]V[Thr(3ξ)]C[Orn]S[12Ado]-OH; thioether N-14)
5 | 26.4 nM | Cc1cccc(C[C@@H]2NC(=O)[C@H](CC(=O)O)NC(=O)[C@H](Cc3ccc(OCC(=O)O)cc3)NC(=O)[C@H](C(C)O)NC(=O)CSC[C@@H](C(=O)N[C@@H](CCN)C(=O)NCCCCCCCCCCC(=O)O)NC(=O)[C@H](C(C)O)NC(=O)[C@H](C(C)C)NC(=O)[C@H](CC3CCCCC3)NC(=O)[C@H](CCN)NC(=O)[C@@H](CC(C)C)NC(=O)[C@H](CCCN)NC(=O)[C@H](Cc3ccc(O)cc3)NC(=O)[C@H](Cc3ccc(-c4ccccc4)cc3)NC(=O)[C@H](Cc3ccc(O)cc3)NC2=O)c1 (stereo partly drawn) [Compound 3456] ({CH2CO}-[Thr(3ξ)]Y(Carboxymethyl)D[Phe(3-Me)]Y[Bip]Y[Orn][dL][Dab][Cha]V[Thr(3ξ)]C[Dab][Aun]-OH; thioether N-14)
6 | 73.6 nM | Cc1cccc(C[C@@H]2NC(=O)[C@H](CC(=O)O)NC(=O)[C@H](Cc3ccc(OCC(=O)O)cc3)NC(=O)[C@H](Cc3cncn3C)NC(=O)CSC[C@@H](C(=O)N[C@@H](CCN)C(=O)NCCCCCCCCCCC(=O)O)NC(=O)[C@H]([C@@H](C)O)NC(=O)[C@H](C(C)C)NC(=O)[C@H](CC3CCCCC3)NC(=O)[C@H](CCN)NC(=O)[C@@H](CC(C)C)NC(=O)[C@H](CCCN)NC(=O)[C@H](Cc3ccc(OCC(=O)O)cc3)NC(=O)[C@H](Cc3ccc(-c4ccccc4)cc3)NC(=O)[C@H](C(C)(C)O)NC2=O)c1 [Compound 2152] ({CH2CO}-[His(π-Me)]Y(Carboxymethyl)D[Phe(3-Me)][Val(3-OH)][Bip]Y(Carboxymethyl)[Orn][dL][Dab][Cha]VTC[Dab][Aun]-OH; thioether N-14)
7 | 368 nM | CC(C)C[C@H]1NC(=O)[C@H](Cc2cnc[nH]2)NC(=O)[C@H](Cc2ccc(OCC(=O)O)cc2)NC(=O)[C@H](Cc2ccc(-c3ccccc3)cc2)NC(=O)[C@H](Cc2ccc(C(=O)O)cc2)NC(=O)[C@H](Cc2cccc(C(F)(F)F)c2)NC(=O)[C@H](CC(=O)O)NC(=O)[C@H](Cc2ccc(OCC(=O)O)cc2)NC(=O)[C@H](C)NC(=O)CSC[C@@H](C(=O)N[C@@H](CCN)C(=O)NCCCCCCCCCCCCCCC(=O)O)NC(=O)[C@H](C(C)O)NC(=O)[C@H](C(C)(C)O)NC(=O)[C@H](CC2CCCCC2)NC(=O)[C@H](CCN)NC1=O (stereo partly drawn) [Compound 3862] ({CH2CO}-AY(Carboxymethyl)D[Phe(3-CF3)][Phe(4-COOH)][Bip]Y(Carboxymethyl)H[dL][Dab][Cha][Val(3-OH)][Thr(3ξ)]C[Dab]-{NH(CH2)14COOH}; thioether N-14)

The next lines start with the molecule.

Row | SMILES | IC50
8 | C#CCOc1ccc(C[C@@H]2NC(=O)[C@H](C(C)C)NC(=O)[C@H](CC3CCCCC3)NC(=O)[C@H](CCN)NC(=O)[C@@H](CC(C)C)NC(=O)[C@H](CCCN)NC(=O)[C@H](Cc3ccc(OCC(=O)O)cc3)NC(=O)[C@H](Cc3ccc(-c4ccccc4)cc3)NC(=O)[C@H](Cc3ccc(OCC(=O)O)cc3)NC(=O)[C@H](Cc3cccc(C)c3)NC(=O)[C@H](CC(=O)O)NC(=O)[C@H](Cc3ccc(OCC(=O)O)cc3)NC(=O)[C@H](CN)NC(=O)CSC[C@@H](C(=O)N[C@@H](CCN)C(=O)NCCOCCOCC(=O)NCCCCCCCCCCC(=O)O)NC2=O)cc1 [Compound 1251] ({CH2CO}-[Dap]Y(Carboxymethyl)D[Phe(3-Me)]Y(Carboxymethyl)[Bip]Y(Carboxymethyl)[Orn][dL][Dab][Cha]VY(Propargyl)C[Dab][AEEA][Aun]-OH; thioether N-14) | 38 nM
9 | CC(C)C[C@H]1NC(=O)[C@H](CCCN)NC(=O)[C@H](C(C)C)NC(=O)[C@H](Cc2ccc(-c3ccccc3)cc2)NC(=O)[C@H](C(C)C)NC(=O)[C@H](Cc2ccc(O)cc2)NC(=O)[C@H](CC(=O)O)NC(=O)[C@H](Cc2ccc(OCC(=O)O)cc2)NC(=O)[C@H](CN)NC(=O)CSC[C@@H](C(=O)N[C@@H](CCN)C(=O)NCCCCCCCCCCC(=O)O)NC(=O)[C@H](CCCCN)NC(=O)[C@H](C(C)C)NC(=O)[C@H](CC2CCCCC2)NC(=O)[C@H](CCN)NC1=O [Compound 2033] ({CH2CO}-[Dap]Y(Carboxymethyl)DYV[Bip]V[Orn][dL][Dab][Cha]VKC[Dab][Aun]-OH; thioether N-14) | 29.2 nM
10 | CC(C)C[C@H]1NC(=O)[C@H](CCCN)NC(=O)[C@H](C(C)C)NC(=O)[C@H](Cc2ccc(-c3ccccc3)cc2)NC(=O)[C@H](C(C)C)NC(=O)[C@H](Cc2c[nH]c3ccccc23)NC(=O)[C@H](CC(=O)O)NC(=O)[C@H](Cc2ccc(OCC(=O)O)cc2)NC(=O)[C@H](CN)NC(=O)CSCC(C(=O)N[C@H](CCCN)C(=O)NCCCCCCCCCCC(=O)O)NC(=O)[C@H]([C@@H](C)O)NC(=O)[C@H](C(C)C)NC(=O)[C@H](CC2CCCCC2)NC(=O)[C@H](Cc2cnc[nH]2)NC1=O (stereo partly drawn) [Compound 1119] ({CH2CO}-[Dap]Y(Carboxymethyl)DWV[Bip]V[Orn][dL]H[Cha]VT[ξC][dOrn][Aun]-OH; thioether N-14) | 57.5 nM
11 | Cc1cccc(C[C@@H]2NC(=O)[C@H](CC(=O)O)NC(=O)[C@H](Cc3ccc(OCC(=O)O)cc3)NC(=O)[C@H](Cc3ccc(OCC(=O)O)cc3)NC(=O)CSC[C@@H](C(=O)NCC(=O)N[C@@H](CCC(=O)O)C(=O)NCC(=O)NCCCCCCCCCCC(=O)O)NC(=O)[C@H](CO)NC(=O)[C@H](C(C)C)NC(=O)[C@H](CC(C)C)NC(=O)[C@H](CCN)NC(=O)[C@@H](CC(C)C)NC(=O)[C@H](CCCN)NC(=O)[C@H](C(C)C)NC(=O)[C@H](Cc3ccc(-c4ccccc4)cc3)NC(=O)[C@H](CC(C)C)NC2=O)c1 [Compound 1138] ({CH2CO}-Y(Carboxymethyl)Y(Carboxymethyl)D[Phe(3-Me)]L[Bip]V[Orn][dL][Dab]LVSCGEG[Aun]-OH; thioether N-14) | 18.9 nM
12 | Cc1cccc(C[C@@H]2NC(=O)[C@H](CC(=O)O)NC(=O)[C@H](Cc3ccc(OCC(=O)O)cc3)NC(=O)[C@H](Cc3ccc(OCC(=O)O)cc3)NC(=O)CSC[C@@H](C(=O)NCCOCCOCC(=O)NCCCCCCCCCCC(=O)O)NC(=O)[C@H](CO)NC(=O)[C@H](C(C)C)NC(=O)[C@H](CC(C)C)NC(=O)[C@H](CCN)NC(=O)[C@@H](CC(C)C)NC(=O)[C@H](CCCN)NC(=O)[C@H](C(C)C)NC(=O)[C@H](Cc3ccc(-c4ccccc4)cc3)NC(=O)[C@@H](CC(C)C)NC2=O)c1 [Compound 1149] ({CH2CO}-Y(Carboxymethyl)Y(Carboxymethyl)D[Phe(3-Me)][dL][Bip]V[Orn][dL][Dab]LVSC[AEEA][Aun]-OH; thioether N-14) | 19.7 nM
13 | Cc1cccc(C[C@@H]2NC(=O)[C@H](CC(=O)O)NC(=O)[C@H](Cc3ccc(OCC(=O)O)cc3)NC(=O)[C@H](CN)NC(=O)CSC[C@@H](C(=O)N[C@@H](CCN)C(=O)NCCOCCOCC(=O)NCCCCCCCCCCC(=O)O)NC(=O)[C@H](CCC(=O)O)NC(=O)[C@H](C(C)C)NC(=O)[C@H](Cc3cccc(F)c3)NC(=O)[C@H](CCN)NC(=O)[C@@H](CC(C)C)NC(=O)[C@H](CCCN)NC(=O)[C@H](Cc3ccc(OCC(=O)O)cc3)NC(=O)[C@H](Cc3ccc(-c4ccccc4)cc3)NC(=O)[C@H](Cc3ccc(C(=O)O)cc3)NC2=O)c1 [Compound 1268] ({CH2CO}-[Dap]Y(Carboxymethyl)D[Phe(3-Me)][Phe(4-COOH)][Bip]Y(Carboxymethyl)[Orn][dL][Dab][Phe(3-F)]VEC[Dab][AEEA][Aun]-OH; thioether N-14) | 13.2 nM
